Among the test systems are 786-0 renal; ACHN renal; BT-549 breast; COLO 205 colon; HCT-15 colon; HOP-92 NSCLC; KM12 colon; MALME-3M melanoma; NCI-H226 lung; NCI-H23 lung; NCI-H522 lung; PC-3 prostate; SR leukemia; U251 CNS.
Holding throughout (assay): NCI tumour cell line growth inhibition, 48 h

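Cultured in 96-well plates, cells were exposed to test compound for 48 hours across five concentrations. At the TGI there is no net growth.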

`NCCCNCCCCNCCCN`: the TGI with 786-0 renal was 2.79 µM; with ACHN renal it was 9.22 µM; in the assay with BT-549 breast it was above 24.5 µM; in the assay on COLO 205 colon it was 11.8 µM; in the assay on HCT-15 colon it was 7.63 µM; with HOP-92 NSCLC, 3.41 µM. Besides, the TGI in the assay with KM12 colon was above 100 µM; in the assay on MALME-3M melanoma, above 100 µM; in the assay on NCI-H226 lung, above 100 µM; with NCI-H23 lung, above 100 µM; in the assay on NCI-H522 lung, 0.879 µM; in the assay with PC-3 prostate, above 100 µM. For the same compound, the values for the TGI in the assay with SR leukemia and in the assay on U251 CNS were above 36.8 µM and above 63.7 µM, respectively.
In the case of `O=c1c2c(-c3ccccc3)onc2n(-c2ccccc2)c(=O)n1-c1ccccc1`, the TGI is above 100 µM with 786-0 renal; above 100 µM in the assay with ACHN renal; 39.5 µM with BT-549 breast; above 100 µM in the assay with COLO 205 colon; 39.1 µM with HCT-15 colon; above 100 µM in the assay with HOP-92 NSCLC. The TGI stood at 37 µM in the assay with KM12 colon; 34.5 µM in the assay with MALME-3M melanoma; 71 µM in the assay on NCI-H226 lung; 47.8 µM with NCI-H23 lung; 33.2 µM with NCI-H522 lung; 82 µM in the assay on PC-3 prostate. The TGI in the assay with SR leukemia and with U251 CNS was above 100 µM throughout.
For the compound `NC12Oc3cc(O)cc(O)c3C1(c1ccc(Cl)cc1)c1c(O)cc(O)cc1O2` (centres undefined), the TGI in the assay on 786-0 renal, with ACHN renal, in the assay with BT-549 breast, in the assay on COLO 205 colon, with HCT-15 colon and in the assay on HOP-92 NSCLC was above 100 µM throughout. Besides, the TGI in the assay on KM12 colon was above 100 µM; in the assay with MALME-3M melanoma, above 100 µM; with NCI-H226 lung, above 100 µM; in the assay with NCI-H23 lung it was above 100 µM; in the assay on NCI-H522 lung, 92.9 µM; in the assay with PC-3 prostate, above 100 µM. For the same compound, the TGI in the assay on SR leukemia and in the assay with U251 CNS was above 100 µM each time.
Turning to `COc1cccc2c1C(=O)c1c(O)c3c(c(O)c1C2=O)C[C@@](O)(C(=O)CO)C[C@@H]3OC1CC(N)C(OC)C(C)O1` (some centres undefined), the TGI came out at 18.2 µM with 786-0 renal; 0.765 µM in the assay on ACHN renal; 1.47 µM with BT-549 breast; 1.94 µM with COLO 205 colon; 13.2 µM with HCT-15 colon; 0.631 µM with HOP-92 NSCLC. The TGI with KM12 colon is 0.931 µM; in the assay with MALME-3M melanoma it was 0.283 µM; with NCI-H226 lung, 0.47 µM; in the assay with NCI-H23 lung it was 0.457 µM; in the assay with NCI-H522 lung, 0.45 µM; in the assay on PC-3 prostate, 1.64 µM. In addition, the results for the TGI with SR leukemia and with U251 CNS were 0.364 µM and 0.441 µM, respectively.
As to `CC(C)=C1C(=O)C[C@]2(C)C[C@H]3/C(=C(/C)CCC12)CC[C@@]3(C)O` (some centres undefined), the TGI in the assay on 786-0 renal, in the assay on ACHN renal, in the assay on BT-549 breast, in the assay on COLO 205 colon, with HCT-15 colon and with HOP-92 NSCLC was above 50 µM each time. For the same compound, the TGI in the assay on KM12 colon, in the assay on NCI-H226 lung, in the assay with NCI-H23 lung, with NCI-H522 lung, with PC-3 prostate and in the assay on SR leukemia was above 50 µM in each case. In the assay on U251 CNS, the TGI is above 50 µM.
Take `COc1ccc(OC)c(C2Cc3cnc4nc(N)nc(N)c4c3C2)c1` (centres undefined): the TGI in the assay with 786-0 renal was 89.9 µM; in the assay on ACHN renal, above 100 µM; in the assay on BT-549 breast, 52.6 µM; in the assay with COLO 205 colon it was 49 µM; in the assay with HCT-15 colon it was above 100 µM; in the assay with HOP-92 NSCLC it was 53.8 µM. Moreover, the TGI in the assay on KM12 colon is 55.7 µM; with MALME-3M melanoma it was 47.3 µM; in the assay on NCI-H23 lung, above 100 µM; with NCI-H522 lung, 64.3 µM; in the assay on PC-3 prostate, 69.7 µM; in the assay on SR leukemia, 44.9 µM. The TGI with U251 CNS was determined as 47.3 µM.
As to `C[C@@H]1C[C@](O)([C@@H](C)Cl)C(=O)O[C@@H]2CCN3CC=C(COC(=O)[C@]1(C)O)[C@H]23`, the TGI with 786-0 renal was above 100 µM; in the assay with ACHN renal, above 10 µM; in the assay on BT-549 breast, above 100 µM; in the assay with COLO 205 colon it was above 100 µM; in the assay with HCT-15 colon, above 100 µM; in the assay with HOP-92 NSCLC, above 100 µM. The TGI was above 100 µM in the assay with KM12 colon; above 100 µM with NCI-H226 lung; above 10 µM in the assay on NCI-H23 lung; above 100 µM in the assay with NCI-H522 lung; above 100 µM in the assay on PC-3 prostate; above 100 µM with SR leukemia. For the same compound, the TGI with U251 CNS was above 100 µM.
For the compound `Cc1ccc(C(=O)N/N=C(\N=Nc2ccccc2[N+](=O)[O-])c2ccc(N(C)C)cc2)cc1`, the TGI in the assay on 786-0 renal, in the assay with ACHN renal, in the assay with BT-549 breast, in the assay on COLO 205 colon, with HCT-15 colon and with HOP-92 NSCLC was above 100 µM throughout. Also, the TGI in the assay with KM12 colon, in the assay with NCI-H226 lung, in the assay on NCI-H23 lung, in the assay on NCI-H522 lung, with PC-3 prostate and with SR leukemia was above 100 µM each time. In addition, the TGI in the assay on U251 CNS is above 100 µM.
For the compound `C[C@@]12CCC3C1C=C1C(=O)c4cc(O)ccc4C(=O)[C@]1(O2)[C@@]3(C)C=O`, the TGI is 14.5 µM with 786-0 renal; 17.1 µM with ACHN renal; 8.69 µM with BT-549 breast; 19.5 µM in the assay with COLO 205 colon; 11.5 µM in the assay on HCT-15 colon; 20.8 µM in the assay on HOP-92 NSCLC. The TGI in the assay on KM12 colon came to 18.1 µM; in the assay on NCI-H226 lung, 44.5 µM; with NCI-H23 lung, 13.5 µM; with NCI-H522 lung it was 11.4 µM; in the assay on PC-3 prostate, 19.5 µM; in the assay on SR leukemia, 5.89 µM. The compound further came in with a TGI with U251 CNS of 19 µM.
With `CC(=O)Nc1ccc2cc(C)c(=O)[nH]c2n1`, the TGI in the assay with 786-0 renal, in the assay on ACHN renal, in the assay on BT-549 breast, with COLO 205 colon, with HCT-15 colon and in the assay with HOP-92 NSCLC was above 100 µM in each case. Moreover, the TGI in the assay on KM12 colon, in the assay on MALME-3M melanoma, in the assay on NCI-H23 lung, in the assay with NCI-H522 lung, with PC-3 prostate and with SR leukemia was above 100 µM throughout. This compound also yielded a TGI with U251 CNS above 100 µM.

Source of the values: PubChem BioAssay (NCI).
